Laboratory results from ChEMBL document CHEMBL3217491, “Design, synthesis and biological evaluation of imidazopyridine/pyrimidine-chalcone derivatives as potential anticancer agents” (2010).
Activity calls are given as the source filed them. The rule behind the calls is not given here.

Assays:
[1] = Growth inhibition of human HCC2998 cells after 48 hrs by SRB assay; type: functional; details: HCC 2998, 48 h
[2] = Growth inhibition of human BT549 cells after 48 hrs by SRB assay; type: functional; details: BT-549, 48 h
CAKI-1 = assay: Growth inhibition of human Caki1 cells after 48 hrs by SRB assay; type: functional; details: CAKI-1, 48 h
MCF7 [3] = assay: Cell cycle arrest in human MCF7 cells assessed as accumulation at S phase at 4 uM after 24 hrs by propidium iodide staining-based flow cytometry (reference value: 20.17%); type: functional
786-0 = assay: Growth inhibition of human 786-0 cells after 48 hrs by SRB assay; type: functional; details: 786-0, 48 h
U-251 = assay: Growth inhibition of human U251 cells after 48 hrs by SRB assay; type: functional; details: U-251, 48 h
HCT-116 = assay: Growth inhibition of human HCT116 cells after 48 hrs by SRB assay; type: functional; details: HCT-116, 48 h
SNB-19 = assay: Growth inhibition of human SNB19 cells after 48 hrs by SRB assay; type: functional; details: SNB-19, 48 h
[4] = Growth inhibition of human NCI-ADR-RES cells after 48 hrs by SRB assay; type: functional
[5] = Growth inhibition of human UACC62 cells after 48 hrs by SRB assay; type: functional; details: UACC-62, 48 h
NCI-H322M = assay: Growth inhibition of human NCI-H322M cells after 48 hrs by SRB assay; type: functional
[6] = Growth inhibition of human MOLT4 cells after 48 hrs by SRB assay; type: functional; details: MOLT-4, 48 h
PC-3 = assay: Growth inhibition of human PC3 cells after 48 hrs by SRB assay; type: functional; details: PC-3, 48 h
COLO 205 = assay: Growth inhibition of human COLO205 cells after 48 hrs by SRB assay; type: functional; details: COLO 205, 48 h
SK-OV-3 = assay: Growth inhibition of human SKOV3 cells after 48 hrs by SRB assay; type: functional; details: SK-OV-3, 48 h
SK-MEL-5 = assay: Growth inhibition of human SK-MEL-5 cells after 48 hrs by SRB assay; type: functional; details: SK-MEL-5, 48 h
A498 = assay: Growth inhibition of human A498 cells after 48 hrs by SRB assay; type: functional; details: A498, 48 h
Malme-3M = assay: Growth inhibition of human MALME-3M cells after 48 hrs by SRB assay; type: functional
NCI-H226 = assay: Growth inhibition of human NCI-H226 cells after 48 hrs by SRB assay; type: functional; details: NCI-H226, 48 h
RPMI-8226 = assay: Growth inhibition of human RPMI8226 cells after 48 hrs by SRB assay; type: functional; details: RPMI-8226, 48 h
SW-620 = assay: Growth inhibition of human SW620 cells after 48 hrs by SRB assay; type: functional; details: SW-620, 48 h
HT-29 = assay: Growth inhibition of human HT-29 cells after 48 hrs by SRB assay; type: functional; details: HT-29, 48 h
SK-MEL-2 = assay: Growth inhibition of human SK-MEL-2 cells after 48 hrs by SRB assay; type: functional; details: SK-MEL-2, 48 h
[7] = Growth inhibition of human HCT15 cells after 48 hrs by SRB assay; type: functional; details: HCT-15, 48 h
NCI-H522 = assay: Growth inhibition of human NCI-H522 cells after 48 hrs by SRB assay; type: functional; details: NCI-H522, 48 h
HOP-62 = assay: Growth inhibition of human HOP62 cells after 48 hrs by SRB assay; type: functional; details: HOP-62, 48 h
SK-MEL-28 = assay: Growth inhibition of human SK-MEL-28 cells after 48 hrs by SRB assay; type: functional; details: SK-MEL-28, 48 h
[8] = Growth inhibition of human OVCAR5 cells after 48 hrs by SRB assay; type: functional; details: OVCAR-5, 48 h
SNB-75 = assay: Growth inhibition of human SNB75 cells after 48 hrs by SRB assay; type: functional; details: SNB-75, 48 h
MDA-MB-468 = assay: Growth inhibition of human MDA-MB-468 cells after 48 hrs by SRB assay; type: functional; details: MDA-MB-468, 48 h
ACHN = assay: Growth inhibition of human ACHN cells after 48 hrs by SRB assay; type: functional
[9] = Growth inhibition of human OVCAR4 cells after 48 hrs by SRB assay; type: functional; details: OVCAR-4, 48 h
SF-268 = assay: Growth inhibition of human SF268 cells after 48 hrs by SRB assay; type: functional; details: SF-268, 48 h
SR = assay: Growth inhibition of human SR cells after 48 hrs by SRB assay; type: functional
NCI-H460 = assay: Growth inhibition of human NCI-H460 cells after 48 hrs by SRB assay; type: functional; details: NCI-H460, 48 h
T47D = assay: Growth inhibition of human T47D cells after 48 hrs by SRB assay; type: functional
CCRF-CEM = assay: Growth inhibition of human CCRF-CEM cells after 48 hrs by SRB assay; type: functional
A549 = assay: Growth inhibition of human A549 cells after 48 hrs by SRB assay; type: functional; details: A549, 48 h
MCF7 [10] = assay: Cell cycle arrest in human MCF7 cells assessed as accumulation at G0/G1 phase at 4 uM after 24 hrs by propidium iodide staining-based flow cytometry (reference value: 64.04%); type: functional
K562 = assay: Growth inhibition of human K562 cells after 48 hrs by SRB assay; type: functional; details: K562, 48 h
SN12C = assay: Growth inhibition of human SN12C cells after 48 hrs by SRB assay; type: functional
IGROV-1 = assay: Growth inhibition of human IGROV1 cells after 48 hrs by SRB assay; type: functional; details: IGROV-1, 48 h
[11] = Growth inhibition of human UO31 cells after 48 hrs by SRB assay; type: functional; details: UO-31, 48 h
MCF7 [12] = assay: Growth inhibition of human MCF7 cells assessed as cell viability at 4 uM after 24 hrs by MTT assay; type: functional, cell-based
[13] = Growth inhibition of human UACC257 cells after 48 hrs by SRB assay; type: functional; details: UACC-257, 48 h
MCF7 [14] = assay: Growth inhibition of human MCF7 cells after 48 hrs by SRB assay; type: functional; details: MCF7, 48 h
[15] = Growth inhibition of human LOXIMVI cells after 48 hrs by SRB assay; type: functional; details: LOX IMVI
[16] = Growth inhibition of human RXF393 cells after 48 hrs by SRB assay; type: functional; details: RXF 393, 48 h
[17] = Growth inhibition of human Hs578T cells after 48 hrs by SRB assay; type: functional; details: Hs-578T
[18] = Growth inhibition of human SF295 cells after 48 hrs by SRB assay; type: functional; details: SF-295, 48 h
TK-10 = assay: Growth inhibition of human TK10 cells after 48 hrs by SRB assay; type: functional; details: TK-10, 48 h
[19] = Growth inhibition of human EKVX cells after 48 hrs by SRB assay; type: functional
M14 = assay: Growth inhibition of human M14 cells after 48 hrs by SRB assay; type: functional; details: M14, 48 h
HL-60(TB) = assay: Growth inhibition of human HL-60(TB) cells after 48 hrs by SRB assay; type: functional; details: HL-60, 48 h
NCI-H23 = assay: Growth inhibition of human NCI-H23 cells after 48 hrs by SRB assay; type: functional; details: NCI-H23, 48 h
KM12 = assay: Growth inhibition of human KM12 cells after 48 hrs by SRB assay; type: functional; details: KM12, 48 h
MDA-MB-435 = assay: Growth inhibition of human MDA-MB-435 cells after 48 hrs by SRB assay; type: functional; details: MDA-MB-435, 48 h
MDA-MB-231 = assay: Growth inhibition of human MDA-MB-231 cells after 48 hrs by SRB assay; type: functional; details: MDA-MB-231, 48 h
[20] = Growth inhibition of human OVCAR3 cells after 48 hrs by SRB assay; type: functional; details: OVCAR-3, 48 h
[21] = Growth inhibition of human SF539 cells after 48 hrs by SRB assay; type: functional; details: SF-539, 48 h
[22] = Growth inhibition of human OVCAR8 cells after 48 hrs by SRB assay; type: functional; details: OVCAR-8, 48 h
DU-145 = assay: Growth inhibition of human DU145 cells after 48 hrs by SRB assay; type: functional; details: DU-145, 48 h
MCF7 [23] = assay: Cell cycle arrest in human MCF7 cells assessed as accumulation at G2/M phase at 4 uM after 24 hrs by propidium iodide staining-based flow cytometry (reference value: 15.79%); type: functional
[24] = Growth inhibition of human HOP92 cells after 48 hrs by SRB assay; type: functional; details: HOP-92, 48 h

Which GI50 [1] does the source give for COc1cc(C(=O)/C=C/c2c(C(F)(F)F)nc3ccccn23)cc(OC)c1OC here?
Its GI50 is 1830 nM.

And the GI50 [2]?
The GI50 was 1640 nM.

And the GI50 (CAKI-1)?
Its GI50 is 1820 nM.

And the Activity (MCF7 [3])?
Its Activity is 4.1%.

And the GI50 (786-0)?
Its GI50 is 1720 nM.

And the GI50 (U-251)?
Its GI50 is 1290 nM.

What about the GI50 (HCT-116) of the same molecule?
Its GI50 is 1260 nM.

And the GI50 (SNB-19)?
The GI50 was 1930 nM.

And the GI50 [4]?
Its GI50 is 1410 nM.

And the GI50 [5]?
Its GI50 is 2050 nM.

And the GI50 (NCI-H322M)?
The GI50 was 1660 nM.

And the GI50 [6]?
Its GI50 is 3730 nM.

What about the GI50 (PC-3) of the same molecule?
Its GI50 is 3800 nM.

What about the GI50 (COLO 205) of the same molecule?
The GI50 was 2110 nM.

And the GI50 (SK-OV-3)?
The GI50 was 4040 nM.

And the GI50 (SK-MEL-5)?
Its GI50 is 1620 nM.

And the GI50 (A498)?
Its GI50 is 2400 nM.

What about the GI50 (Malme-3M) of the same molecule?
The GI50 was 1570 nM.

And the GI50 (NCI-H226)?
The GI50 was 3550 nM.

And the GI50 (RPMI-8226)?
Its GI50 is 1980 nM.

What about the GI50 (SW-620) of the same molecule?
The GI50 was 1680 nM.

And the GI50 (HT-29)?
The GI50 was 1930 nM.

And the GI50 (SK-MEL-2)?
The GI50 was 2430 nM.

And the GI50 [7]?
The GI50 was 2100 nM.

And the GI50 (NCI-H522)?
The GI50 was 1770 nM.

And the GI50 (HOP-62)?
The GI50 was 2970 nM.

And the GI50 (SK-MEL-28)?
Its GI50 is 1930 nM.

What about the GI50 [8] of the same molecule?
The GI50 was 1980 nM.

And the GI50 (SNB-75)?
Its GI50 is 1760 nM.

And the GI50 (MDA-MB-468)?
Its GI50 is 2120 nM.

And the GI50 (ACHN)?
Its GI50 is 1950 nM.

And the GI50 [9]?
Its GI50 is 4100 nM.

And the GI50 (SF-268)?
The GI50 was 1640 nM.

What about the GI50 (SR) of the same molecule?
Its GI50 is 2910 nM.

What about the GI50 (NCI-H460) of the same molecule?
Its GI50 is 2010 nM.

And the GI50 (T47D)?
The GI50 was 3520 nM.

And the GI50 (CCRF-CEM)?
Its GI50 is 4150 nM.

And the GI50 (A549)?
Its GI50 is 4040 nM.

And the Activity (MCF7 [10])?
The Activity was 95.24%.

And the GI50 (K562)?
The GI50 was 2830 nM.

What about the GI50 (SN12C) of the same molecule?
The GI50 was 2090 nM.

And the GI50 (IGROV-1)?
The GI50 was 2230 nM.

And the GI50 [11]?
The GI50 was 1490 nM.

What about the inhibition (MCF7 [12]) of the same molecule?
Its inhibition is “Active”.

What about the GI50 [13] of the same molecule?
The GI50 was 1660 nM.

What about the GI50 (MCF7 [14]) of the same molecule?
Its GI50 is 1440 nM.

What about the GI50 [15] of the same molecule?
The GI50 was 1660 nM.

And the GI50 [16]?
The GI50 was 1870 nM.

What about the GI50 [17] of the same molecule?
The GI50 was 3270 nM.

And the GI50 [18]?
The GI50 was 1990 nM.

And the GI50 (TK-10)?
Its GI50 is 2090 nM.

And the GI50 [19]?
Its GI50 is 2370 nM.

And the GI50 (M14)?
The GI50 was 1820 nM.

And the GI50 (HL-60(TB))?
The GI50 was 4120 nM.

What about the GI50 (NCI-H23) of the same molecule?
Its GI50 is 1510 nM.

What about the GI50 (KM12) of the same molecule?
Its GI50 is 1730 nM.

And the GI50 (MDA-MB-435)?
The GI50 was 2260 nM.

What about the GI50 (MDA-MB-231) of the same molecule?
The GI50 was 4590 nM.

And the GI50 [20]?
Its GI50 is 1830 nM.

What about the GI50 [21] of the same molecule?
The GI50 was 1630 nM.

And the GI50 [22]?
Its GI50 is 3390 nM.

And the GI50 (DU-145)?
Its GI50 is 1610 nM.

What about the Activity (MCF7 [23]) of the same molecule?
Its Activity is 0.66%.

And the GI50 [24]?
The GI50 was 2650 nM.
